In patent US8697694B2, “Substituted pyridine and pyrimidine derivatives and their use in treating viral infections” (priority 2008, dated 2014):

Test system: HCV replicon cells
Assay: Cell-based HCV replicon assay (replicon RNA level by real time PCR, Taqman)
Settings: Hepatitis C virus, 72 h, HCV replicon cells, harvested on day 3, replicon RNA by real time PCR; calculated EC90 reported as range class; read-out: EC90 (μM) range
Outline: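 HCV replicon cells treated 3 days with 10 serial 2-fold compound dilutions (top 25 μM to 1 μM; 0.5% DMSO, 10% FBS). Replicon RNA quantified by multiplex Taqman RT-PCR (NS5B amplicon, GAPDH control); EC50 and EC90 = concentrations giving ΔCT of 1 and 3.2 over baseline.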

How did the EC90 turn out when C[C@H](Nc1nc(Cl)c(-c2nc3ccccc3s2)c(N[C@@H]2C[C@H](CO)[C@@H](O)[C@H]2O)n1)c1ccccc1 [Example 440] was run?
The EC90 was 0.5 to 5 µM.

Which EC90 does the source give for OC[C@H]1C[C@@H](Nc2nc(NCCc3ccccc3)nc(Cl)c2-c2nc3ccccc3s2)[C@H](O)[C@@H]1O [Example 444] here?
The EC90 was < 0.5 µM.

For Cc1nc(NCCc2ccccc2)nc(N[C@@H]2C[C@H](CO)[C@@H](O)[C@H]2O)c1-c1nc2ccccc2s1 [Example 445], which EC90 is on record?
Its EC90 is < 0.5 µM.

How did the EC90 turn out when CCCCCNc1nc(Cl)c(-c2cc3cc(CCC)nc(C)c3o2)c(N[C@@H]2C[C@H](CO)[C@@H](O)[C@H]2O)n1 [Example 446] was run?
The EC90 was < 0.5 µM.

For OC[C@H]1C[C@@H](Nc2nc(NCC3CCOCC3)nc(Cl)c2-c2nc3ccccc3s2)[C@H](O)[C@@H]1O [Example 447], which EC90 is on record?
Its EC90 is < 0.5 µM.

CCCCCNc1nc(C)c(-c2cc3cc(CCC)nc(C)c3o2)c(N[C@@H]2C[C@H](CO)[C@@H](O)[C@H]2O)n1 [Example 448] was tested. Which EC90 did it give?
The EC90 was < 0.5 µM.

With Cc1nc(NCC2CCOCC2)nc(N[C@@H]2C[C@H](CO)[C@@H](O)[C@H]2O)c1-c1nc2ccccc2s1 [Example 449] as the molecule, how does the EC90 read?
Its EC90 is < 0.5 µM.

Which EC90 does the source give for CCCCCNc1nc(Cl)c(-c2cc3cc(C)nc(C)c3o2)c(N[C@@H]2C[C@H](CO)[C@@H](O)[C@H]2O)n1 [Example 450] here?
The EC90 was < 0.5 µM.

Which EC90 does the source give for CCCCCNc1nc(Cl)c(-c2cc3cc(C)ncc3o2)c(N[C@@H]2C[C@H](CO)[C@@H](O)[C@H]2O)n1 [Example 451] here?
Its EC90 is < 0.5 µM.

For CCCCCNc1nc(C)c(-c2cc3cc(C)nc(C)c3o2)c(N[C@@H]2C[C@H](CO)[C@@H](O)[C@H]2O)n1 [Example 452], which EC90 is on record?
Its EC90 is < 0.5 µM.

For CCCCCNc1nc(C)c(-c2cc3cc(C)ncc3o2)c(N[C@@H]2C[C@H](CO)[C@@H](O)[C@H]2O)n1 [Example 453], which EC90 is on record?
The EC90 was < 0.5 µM.

How did the EC90 turn out when CCCCCCNc1nc(Cl)c(-c2nc3ccccc3s2)c(N[C@@H]2C[C@H](CO)[C@@H](O)[C@H]2O)n1 [Example 454] was run?
The EC90 was < 0.5 µM.

For CCCCCCNc1nc(C)c(-c2nc3ccccc3s2)c(N[C@@H]2C[C@H](CO)[C@@H](O)[C@H]2O)n1 [Example 455], which EC90 is on record?
Its EC90 is < 0.5 µM.

Cc1cc2cc(-c3c(Cl)nc(NCC(F)(F)F)nc3N[C@@H]3C[C@H](CO)[C@@H](O)[C@H]3O)oc2c(C)n1 [Example 456] was tested. Which EC90 did it give?
Its EC90 is < 0.5 µM.

Which EC90 does the source give for Cc1cc2cc(-c3c(C)nc(NCC(F)(F)F)nc3N[C@@H]3C[C@H](CO)[C@@H](O)[C@H]3O)oc2c(C)n1 [Example 457] here?
Its EC90 is < 0.5 µM.

Cc1cc2cc(-c3c(Cl)nc(NCC4CCOCC4)nc3N[C@@H]3C[C@H](CO)[C@@H](O)[C@H]3O)oc2c(C)n1 [Example 458] was tested. Which EC90 did it give?
The EC90 was < 0.5 µM.

Cc1cc2cc(-c3c(Cl)nc(NCC4CCCCC4)nc3N[C@@H]3C[C@H](CO)[C@@H](O)[C@H]3O)oc2c(C)n1 [Example 460] was tested. Which EC90 did it give?
The EC90 was < 0.5 µM.

How did the EC90 turn out when Cc1cc2cc(-c3c(C)nc(NCC4CCCCC4)nc3N[C@@H]3C[C@H](CO)[C@@H](O)[C@H]3O)oc2c(C)n1 [Example 461] was run?
The EC90 was < 0.5 µM.

For Cc1nc(NCc2ccccn2)nc(N[C@@H]2C[C@H](CO)[C@H]3OC(C)(C)O[C@H]32)c1-c1nc2ccccc2s1 [Example 462], which EC90 is on record?
The EC90 was 0.5 to 5 µM.

With Cc1nc(NCc2cccnc2)nc(N[C@@H]2C[C@H](CO)[C@H]3OC(C)(C)O[C@H]32)c1-c1nc2ccccc2s1 [Example 463] as the molecule, how does the EC90 read?
The EC90 was < 0.5 µM.

For Cc1nc(NCc2ccncc2)nc(N[C@@H]2C[C@H](CO)[C@H]3OC(C)(C)O[C@H]32)c1-c1nc2ccccc2s1 [Example 464], which EC90 is on record?
The EC90 was < 0.5 µM.

Cc1nc(NCc2ccccn2)nc(N[C@@H]2C[C@H](CO)[C@@H](O)[C@H]2O)c1-c1nc2ccccc2s1 [Example 465] was tested. Which EC90 did it give?
The EC90 was < 0.5 µM.

For Cc1nc(NCc2cccnc2)nc(N[C@@H]2C[C@H](CO)[C@@H](O)[C@H]2O)c1-c1nc2ccccc2s1 [Example 466], which EC90 is on record?
The EC90 was < 0.5 µM.

With Cc1nc(NCc2cccn2C)nc(N[C@@H]2C[C@H](CO)[C@H]3OC(C)(C)O[C@H]32)c1-c1nc2ccccc2s1 [Example 468] as the molecule, how does the EC90 read?
The EC90 was < 0.5 µM.

How did the EC90 turn out when Cc1nc(NCc2ccco2)nc(N[C@@H]2C[C@H](CO)[C@H]3OC(C)(C)O[C@H]32)c1-c1nc2ccccc2s1 [Example 469] was run?
The EC90 was < 0.5 µM.

How did the EC90 turn out when Cc1nc(NCc2ccco2)nc(N[C@@H]2C[C@H](CO)[C@@H](O)[C@H]2O)c1-c1nc2ccccc2s1 [Example 470] was run?
Its EC90 is < 0.5 µM.

How did the EC90 turn out when COC(C)(C)CNc1nc(C)c(-c2nc3ccccc3s2)c(N[C@@H]2C[C@H](CO)[C@H]3OC(C)(C)O[C@H]32)n1 [Example 471] was run?
The EC90 was < 0.5 µM.

How did the EC90 turn out when Cc1nc(NCc2nccs2)nc(N[C@@H]2C[C@H](CO)[C@H]3OC(C)(C)O[C@H]32)c1-c1nc2ccccc2s1 [Example 472] was run?
Its EC90 is < 0.5 µM.

With COC(C)(C)CNc1nc(C)c(-c2nc3ccccc3s2)c(N[C@@H]2C[C@H](CO)[C@@H](O)[C@H]2O)n1 [Example 473] as the molecule, how does the EC90 read?
The EC90 was < 0.5 µM.

Which EC90 does the source give for Cc1nc(NCc2nccs2)nc(N[C@@H]2C[C@H](CO)[C@@H](O)[C@H]2O)c1-c1nc2ccccc2s1 [Example 474] here?
Its EC90 is < 0.5 µM.

With Cc1nc(NCc2cc3ccccc3s2)nc(N[C@@H]2C[C@H](CO)[C@H]3OC(C)(C)O[C@H]32)c1-c1nc2ccccc2s1 [Example 475] as the molecule, how does the EC90 read?
The EC90 was 0.5 to 5 µM.

How did the EC90 turn out when Cc1ccsc1CNc1nc(C)c(-c2nc3ccccc3s2)c(N[C@@H]2C[C@H](CO)[C@H]3OC(C)(C)O[C@H]32)n1 [Example 476] was run?
The EC90 was < 0.5 µM.

With Cc1csc(CNc2nc(C)c(-c3nc4ccccc4s3)c(N[C@@H]3C[C@H](CO)[C@H]4OC(C)(C)O[C@H]43)n2)c1 [Example 477] as the molecule, how does the EC90 read?
Its EC90 is < 0.5 µM.

Which EC90 does the source give for Cc1nc(NCc2cc3ccccc3s2)nc(N[C@@H]2C[C@H](CO)[C@@H](O)[C@H]2O)c1-c1nc2ccccc2s1 [Example 478] here?
The EC90 was < 0.5 µM.

For Cc1ccsc1CNc1nc(C)c(-c2nc3ccccc3s2)c(N[C@@H]2C[C@H](CO)[C@@H](O)[C@H]2O)n1 [Example 479], which EC90 is on record?
The EC90 was < 0.5 µM.

How did the EC90 turn out when Cc1csc(CNc2nc(C)c(-c3nc4ccccc4s3)c(N[C@@H]3C[C@H](CO)[C@@H](O)[C@H]3O)n2)c1 [Example 480] was run?
The EC90 was < 0.5 µM.

Which EC90 does the source give for Cc1nc(NCc2cccc[n+]2[O-])nc(N[C@@H]2C[C@H](CO)[C@H]3OC(C)(C)O[C@H]32)c1-c1nc2ccccc2s1 [Example 481] here?
The EC90 was > 5 µM.

How did the EC90 turn out when Cc1nc(NCc2cccc[n+]2[O-])nc(N[C@@H]2C[C@H](CO)[C@@H](O)[C@H]2O)c1-c1nc2ccccc2s1 [Example 482] was run?
Its EC90 is 0.5 to 5 µM.

With COc1cccc(CNc2nc(C)c(-c3nc4ccccc4s3)c(N[C@@H]3C[C@H](CO)[C@H]4OC(C)(C)O[C@H]43)n2)c1 [Example 483] as the molecule, how does the EC90 read?
Its EC90 is 0.5 to 5 µM.

For Cc1cccc(CNc2nc(C)c(-c3nc4ccccc4s3)c(N[C@@H]3C[C@H](CO)[C@H]4OC(C)(C)O[C@H]43)n2)c1 [Example 485], which EC90 is on record?
Its EC90 is 0.5 to 5 µM.

How did the EC90 turn out when Cc1cccc(CNc2nc(C)c(-c3nc4ccccc4s3)c(N[C@@H]3C[C@H](CO)[C@@H](O)[C@H]3O)n2)c1 [Example 486] was run?
Its EC90 is < 0.5 µM.

Cc1ccccc1CNc1nc(C)c(-c2nc3ccccc3s2)c(N[C@@H]2C[C@H](CO)[C@H]3OC(C)(C)O[C@H]32)n1 [Example 487] was tested. Which EC90 did it give?
The EC90 was > 5 µM.

With Cc1ccccc1CNc1nc(C)c(-c2nc3ccccc3s2)c(N[C@@H]2C[C@H](CO)[C@@H](O)[C@H]2O)n1 [Example 488] as the molecule, how does the EC90 read?
The EC90 was < 0.5 µM.

How did the EC90 turn out when Cc1ccc(CNc2nc(C)c(-c3nc4ccccc4s3)c(N[C@@H]3C[C@H](CO)[C@H]4OC(C)(C)O[C@H]43)n2)cc1 [Example 489] was run?
Its EC90 is 0.5 to 5 µM.

For Cc1ccc(CNc2nc(C)c(-c3nc4ccccc4s3)c(N[C@@H]3C[C@H](CO)[C@@H](O)[C@H]3O)n2)cc1 [Example 490], which EC90 is on record?
Its EC90 is < 0.5 µM.

How did the EC90 turn out when Cc1cc(CNc2nc(C)c(-c3nc4ccccc4s3)c(N[C@@H]3C[C@H](CO)[C@H]4OC(C)(C)O[C@H]43)n2)no1 [Example 491] was run?
The EC90 was 0.5 to 5 µM.
